According to patent US6407248B1, “α-unsaturated amines, their production and use” (Takeda Chemical Industries, Ltd., priority 1987, dated 2002):
Like-named read-outs stand apart in the source and are kept apart here.

Tested on: Brown Planthoppers (Nilaparvata lugens)
Test: Effect against brown planthoppers (foliar spray on rice seedlings)
Format: in vivo
Details: Nilaparvata lugens, foliar, 168 h, read-out: % Mortality after 7 days
Method: Effect Against Brown Planthoppers (Nilaparvata lugens)
An emulsifiable concentrate of the compound of the invention, prepared in the same manner as Example 112 below, was diluted with water to a concentration of 500 ppm and sprayed over the stems and leaves of rice seedlings in the 2-leaf stage at the rate of 10 ml per paper pot. Water was put in test tubes and the treated rice seedlings were placed therein. Then, 10 brown planthopper larvae were released in each tube, which was then capped with an aluminum cap. The test tubes were maintained in an incubator at 25° C. and the dead insects were counted 7 days after release. The % mortality was calculated using the following formula. [formula]

[1] = emulsifiable concentrate diluted with water to 500 ppm, sprayed on rice seedlings (2-leaf stage), 10 ml per paper pot, 10 larvae per tube, 25° C., dead insects counted 7 days after release

CN(C)C(=C[N+](=O)[O-])N(C=O)Cc1cccnc1 [Compound 72, 1-Dimethylamino-1-[N-formyl-N-(3-pyridylmethyl)]-amino-2-nitroethylene]
mortality at 500 µg/mL [1]: 100%

CNC(=C[N+](=O)[O-])N(C)Cc1cnccn1 [Compound 73, 1-Methylamino-1-[N-methyl-N-(2-pyrazinyl)methyl]amino-2-nitroethylene]
mortality at 500 µg/mL [1]: 100%

CCCN(Cc1ccc(Cl)nc1)C(N)=C[N+](=O)[O-] [Compound 75, 1-Amino-1-[N-(6-chloro-3-pyridylmethyl)-N-n-propyl]-amino-2-nitroethylene]
mortality at 500 µg/mL: 100%

CCCN(Cc1ccc(Cl)nc1)C(=C[N+](=O)[O-])NC [Compound 76, 1-[N-(6-Chloro-3-pyridylmethyl)-N-n-propyl]amino-1-methylamino-2-nitroethylene]
mortality at 500 µg/mL: 100%

CNC(=C[N+](=O)[O-])N(C)c1ccc(Cl)nc1 [Compound 78, 1-[N-(6-Chloro-3-pyridyl)-N-methyl]amino-1-methyl-amino-2-nitroethylene]
mortality at 500 µg/mL [1]: 100%

CNC(=C[N+](=O)[O-])N(C)c1cccnc1 [Compound 79, 1-Methylamino-1-[N-methyl-N-(3-pyridyl)]amino-2-nitroethylene]
mortality at 500 µg/mL [1]: 100%

CCNC(=C[N+](=O)[O-])N(C)Cc1ccc(Cl)nc1 [Compound 80, 1-[N-(6-Chloro-3-pyridylmethyl)-N-methyl]amino-1-ethylamino-2-nitroethylene]
mortality at 500 µg/mL: 100%

CNC(=C[N+](=O)[O-])N(C)c1ccc(C)nc1 [Compound 84, 1-Methylamino-1-[N-methyl-N-(6-methyl-3-pyridyl)]-amino-2-nitroethylene]
mortality at 500 µg/mL [1]: 100%

CCNC(=C[N+](=O)[O-])N(C)c1ccc(Cl)nc1 [Compound 85, 1-[N-(6-chloro-3-pyridyl)-N-methyl]amino-1-ethyl-amino-2-nitroethylene]
mortality at 500 µg/mL [1]: 100%

CNC(=C[N+](=O)[O-])N(C)Cc1cncc(Br)c1 [Compound 86, 1-[N-(5-Bromo-3-pyridylmethyl)-N-methyl]amino-1-methylamino-2-nitroethylene]
mortality at 500 µg/mL [1]: 100%

CNC(=C[N+](=O)[O-])N(C)Cc1cscn1 [Compound 88, 1-Methylamino-1-[N-methyl-N-(4-thiazolyl)methyl]-amino-2-nitroethylene]
mortality at 500 µg/mL [1]: 100%

O=[N+]([O-])C=C(NCc1ccc(Cl)nc1)NCc1ccc(Cl)nc1 [Compound 89, 1,1-bis(6-Chloro-3-pyridylmethyl)amino-2-nitro-ethylene]
mortality at 500 µg/mL: 100%

CCN(C(=C[N+](=O)[O-])NC)c1ccc(Cl)nc1 [Compound 90, 1-[N-(6-Chloro-3-pyridyl)-N-ethyl]amino-1-methyl-amino-2-nitroethylene]
mortality at 500 µg/mL [1]: 100%

CCCN(C(=C[N+](=O)[O-])NC)c1ccc(Cl)nc1 [Compound 91, 1-[N-(6-Chloro-3-pyridyl)-N-n-propyl]amino-1-methyl-amino-2-nitroethylene]
mortality at 500 µg/mL [1]: 100%

CCCCN(C(=C[N+](=O)[O-])NC)c1ccc(Cl)nc1 [Compound 92, 1-[N-n-Butyl-N-(6-chloro-3-pyridyl)]amino-1-methyl-amino-2-nitroethylene]
mortality at 500 µg/mL [1]: 100%

CCNC(=C[N+](=O)[O-])N(CC)c1ccc(Cl)nc1 [Compound 93, 1-[N-(6-Chloro-3-pyridyl)-N-ethyl]amino-1-ethyl-amino-2-nitroethylene]
mortality at 500 µg/mL [1]: 100%

CCCNC(=C[N+](=O)[O-])N(C)c1ccc(Cl)nc1 [Compound 95, 1-[N-(6-Chloro-3-pyridyl)-N-methyl]amino-1-n-propyl-amino-2-nitroethylene]
mortality at 500 µg/mL [1]: 100%

CNC(=C[N+](=O)[O-])Nc1ccc(Cl)nc1 [Compound 96, 1-(6-Chloro-3-pyridyl)amino-1-methylamino-2-nitro-ethylene]
mortality at 500 µg/mL [1]: 100%

CNC(=C[N+](=O)[O-])N(C)Cc1ccc(C)nc1 [Compound 97, 1-Methylamino-1-[N-methyl-N-(6-methyl-3-pyridyl-methyl)]amino-2-nitroethylene]
mortality at 500 µg/mL: 100%

CNC(=C[N+](=O)[O-])N(C)Cc1ccc(F)nc1 [Compound 98]
mortality at 500 µg/mL: 100%

CCN(Cc1ccc(F)nc1)C(=C[N+](=O)[O-])NC [Compound 99, 1-[N-Ethyl-N-(6-fluoro-3-pyridylmethyl)]amino-1-methylamino-2-nitroethylene]
mortality at 500 µg/mL: 100%

CNC(=C[N+](=O)[O-])N(C)Cc1ccc(Br)nc1 [Compound 100, 1-[N-(6-Bromo-3-pyridylmethyl)-N-methyl]amino-1-methylamino-2-nitroethylene]
mortality at 500 µg/mL: 100%

CCN(Cc1ccc(Br)nc1)C(=C[N+](=O)[O-])NC [Compound 101, 1-[N-(6-Bromo-3-pyridylmethyl)-N-ethyl]amino-1-methylamino-2-nitroethylene]
mortality at 500 µg/mL: 100%

CNC(=C[N+](=O)[O-])N(C)Cc1cnc(Cl)s1 [Compound 102, 1-[N-(2-Chloro-5-thiazolylmethyl)-N-methyl]amino-1-methylamino-2-nitroethylene]
mortality at 500 µg/mL: 100%

CCN(Cc1cnc(Cl)s1)C(=C[N+](=O)[O-])NC [Compound 103, 1-[N-(2-Chloro-5-thiazolylmethyl)-N-ethyl]amino-1-methylamino-2-nitroethylene]
mortality at 500 µg/mL: 100%

CN(C)C(=C[N+](=O)[O-])NCc1cnc(Cl)s1 [Compound 104, 1-(2-Chloro-5-thiazolylmethyl)amino-1-dimethyl-amino-2-nitroethylene]
mortality at 500 µg/mL: 100%

O=[N+]([O-])C=C(NCc1cnc(Cl)s1)NCc1cnc(Cl)s1 [Compound 105, 1,1-bis(2-chloro-5-thiazolylmethyl)amino-2-nitroethylene]
mortality at 500 µg/mL: 100%

CNC(=C[N+](=O)[O-])NCc1cnc(Cl)s1 [Compound 106, 1-(2-Chloro-5-thiazolylmethyl)amino-1-methylamino-2-nitroethylene]
mortality at 500 µg/mL: 100%

CN(C)C(=C[N+](=O)[O-])Nc1ccc(Cl)nc1 [Compound 107, 1-(6-Chloro-3-pyridyl)amino-1-dimethylamino-2-nitrothylene]
mortality at 500 µg/mL [1]: 100%

CNC(=C[N+](=O)[O-])N(C)c1ccc(OC)nc1 [Compound 108, 1-[N-(6-Methoxy-3-pyridyl)-N-methyl]amino-1-1-methyl-amino-2-nitroethylene]
mortality at 500 µg/mL [1]: 100%

CCOC(=O)C(=C(NC)N(C)c1ccc(Cl)nc1)[N+](=O)[O-] [Compound 109, 1-[N-(6-Chloro-3-pyridyl)-N-methyl]amino-1-methylamino-2-ethoxycarbonyl-2-nitroethylene]
mortality at 500 µg/mL [1]: 100%

CN(C=O)C(=C[N+](=O)[O-])N(C)Cc1ccc(Cl)nc1 [Compound 110, 1-[N-(6-Chloro-3-pyridylmethyl)-N-methyl]amino-1-(N-formyl-N-methyl)amino-2-nitroethylene]
mortality at 500 µg/mL: 100%

CCN(Cc1ccc(Cl)nc1)C(=C[N+](=O)[O-])N(C)C=O [Compound 111, 1-[N-(6-Chloro-3-pyridylmethyl)-N-ethyl]amino-1-(N-formyl-N-methyl)amino-2-nitroethylene]
mortality at 500 µg/mL: 100%

CN(C=O)C(=C[N+](=O)[O-])N(C)c1ccc(Cl)nc1 [Compound 112, 1[N-(6-Chloro-3-pyridyl)-N-methyl]amino-1-(N-formyl-N-methyl)amino-2-nitroethylene]
mortality at 500 µg/mL [1]: 100%

CN(C)C(=C[N+](=O)[O-])N(C=O)Cc1ccc(Cl)nc1 [Compound 113, 1-[N-(6-Chloro-3-pyridylmethyl)-N-formyl]amino-1-dimethylamino-2-nitroethylene]
mortality at 500 µg/mL: 100%

CCOC(=O)C(=C(NC)NCc1ccc(Cl)nc1)[N+](=O)[O-] [Compound 116, 1-(6-Chloro-3-pyridylmethyl)amino-1-methylamino-2-ethoxycarbonyl-2-nitroethylene]
mortality at 500 µg/mL: 100%

CNC(NCc1ccc(Cl)nc1)=C(C(=S)NS(C)(=O)=O)[N+](=O)[O-] [Compound 117]
mortality at 500 µg/mL: 100%

CNC(=C[N+](=O)[O-])NCc1ccc(Br)nc1 [Compound 118, 1-N-(6-Bromo-3-pyridylmethyl)amino-1-methylamino-2-nitroetylene]
mortality at 500 µg/mL: 100%

CN(C=O)C(=C[N+](=O)[O-])N(C)Cc1cnc(Cl)s1 [Compound 121, 1-[N-(2-Chloro-5-thiazolylmethyl)-N-methyl)amino-1-(N-formyl-N-methyl)amino-2-nitroethylene]
mortality at 500 µg/mL: 100%

CCN(Cc1cnc(Cl)s1)C(=C[N+](=O)[O-])N(C)C=O [Compound 122, 1-[N-(2-Chloro-5-thiazolylmethyl)-N-ethyl) amino-1-(N-formyl-N-methyl)amino-2-nitroethylene]
mortality at 500 µg/mL: 100%

CNC(=C[N+](=O)[O-])N(C=O)Cc1cnc(Cl)s1 [Compound 124, 1-[N-(2-chloro-5-thiazolylmethyl)-N-formyl]amino-1-methylamino-2-nitroethylene]
mortality at 500 µg/mL: 100%

CN(C=O)C(=C[N+](=O)[O-])N(C)Cc1ccc(Br)nc1 [Compound 125, 1-[N-(6-Bromo-3-pyridylmethyl)-N-methyl]amino-1-(N-formyl-N-methyl)amino-2-nitroethylene]
mortality at 500 µg/mL: 100%

CCN(Cc1ccc(Br)nc1)C(=C[N+](=O)[O-])N(C)C=O [Compound 126, 1-[N-(6-Bromo-3-pyridylmethyl)-N-ethyl]amino-1-(N-formyl-N-methyl)amino-2-nitroethylene]
mortality at 500 µg/mL: 100%

CN(C)C(=C[N+](=O)[O-])NCc1ccc(Br)nc1 [Compound 127, 1-N-(6-Bromo-3-pyridylmethyl)amino-1-dimethylamino-2-nitroethylene]
mortality at 500 µg/mL: 100%
